Data as given in patent US11780812B2, “Oxopyridine derivatives useful as aminocarboxymuconate semialdehyde decarboxylase (ACMSD) inhibitors” (OrsoBio, Inc., priority 2016, dated 2023).

These compounds were tested against human ACMSD (Homo sapiens (Human), UniProt Q8TDX5) (assay: Human ACMSD-1 inhibitor assay (coupled 3-HAO/ACMSD, absorbance at 360 nm)). Conditions: read-out: hACMSD IC50; human ACMSD 6 μg/ml, 50 mM MES pH 6.0, 28° C., four-parameter dose-response fit.
Chain of human ACMSD (Q8TDX5 whole entry): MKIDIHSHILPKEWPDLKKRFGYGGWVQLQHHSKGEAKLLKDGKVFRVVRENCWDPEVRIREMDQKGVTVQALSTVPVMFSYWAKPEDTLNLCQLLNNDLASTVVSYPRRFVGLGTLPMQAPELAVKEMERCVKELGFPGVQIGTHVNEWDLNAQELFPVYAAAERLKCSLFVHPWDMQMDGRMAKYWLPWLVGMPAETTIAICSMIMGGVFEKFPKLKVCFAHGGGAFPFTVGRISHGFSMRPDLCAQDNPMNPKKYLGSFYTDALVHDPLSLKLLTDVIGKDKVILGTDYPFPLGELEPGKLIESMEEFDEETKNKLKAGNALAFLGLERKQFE
Procedure: A solution of 7.8 μg/ml 3-hydroxyanthranilate 3,4-dioxygenase (3-HAO) with protein dilution buffer (50 mM 4-Morpholineethanesulfonic acid “MES” pH 6.0) and a solution of 6 μg/ml Human 2-amino-3-carboxymuconate-6-semialdehyde decarboxylase (human ACMSD) with protein dilution buffer (50 mM MES pH 6.0) were prepared separately. A serial 2-fold dilution of test compounds, from 512 nM until 0.5 nM were prepared.
The plate was placed into a SpectraMax Plus 384 Microplate Reader, Molecular Devices with the temperature set to 28° C. The absorbance at 360 nm for 10 min with 10 seconds interval was monitored and recorded.
To a 96-well plate was added 50 μl of 6 μg/ml human ACMSD with series concentrations of the test compound. The absorbance was recorded at 360 nm for 10 min with 10 seconds interval. The data was analyzed in GraphPad Prism 6. A four-parameter dose-response curve was fitted. “Hill Slope” was constrained between −0.5 and −3, and such constrains was indicated when applied.

Row | Compound | IC50 [nM]
1 | Cc1c(-c2ccccc2)c(C#N)c(SCc2cccc(C(=O)O)c2)[nH]c1=O [Ex. 31, 3-((3-cyano-5-methyl-6-oxo-4-phenyl-1,6-dihydropyridin-2-ylthio)methyl)benzoic acid] | > 10000
2 | N#Cc1c(C(F)(F)F)cc(=O)[nH]c1SCc1cc(C(=O)O)ccc1Cl [Ex. 3, 4-chloro-3-((3-cyano-6-oxo-4-(trifluoromethyl)-1,6-dihydropyridin-2-ylthio)methyl)benzoic acid] | 158
3 | Cc1c(C(F)(F)F)c(C#N)c(SCc2nnn[nH]2)[nH]c1=O [Ex. 47, 2-(((1H-tetrazol-5-yl)methyl)thio)-5-methyl-6-oxo-4-(trifluoromethyl)-1,6-dihydropyridine-3-carbonitrile] | 7
4 | N#Cc1c(C(F)(F)F)cc(=O)[nH]c1SC(F)(F)C(=O)O [Ex. 28, 2-((3-cyano-6-oxo-4-(trifluoromethyl)-1,6-dihydropyridin-2-yl)thio)-2,2-difluoroacetic acid] | 20
5 | CC(C)(C)c1cc(=O)[nH]c(SCC(=O)O)c1C#N [Ex. 10, 2-((4-(tert-butyl)-3-cyano-6-oxo-1,6-dihydropyridin-2-yl)thio)acetic acid] | 4600
6 | N#Cc1c(C(F)F)cc(=O)[nH]c1SCC(=O)O [Ex. 4, 2-((3-cyano-4-(difluoromethyl)-6-oxo-1,6-dihydropyridin-2-yl)thio)acetic acid] | 118
7 | CCc1cc(=O)[nH]c(SCC(=O)O)c1C#N [Ex. 9, 2-((3-cyano-4-ethyl-6-oxo-1,6-dihydropyridin-2-yl)thio)acetic acid] | 3400
8 | CCCc1cc(=O)[nH]c(SCC(=O)O)c1C#N [Ex. 6, 2-((3-cyano-6-oxo-4-propyl-1,6-dihydropyridin-2-yl)thio)acetic acid] | 3050
9 | N#Cc1c(SCc2nnn[nH]2)[nH]c(=O)c(Cl)c1C(F)(F)F [Ex. 40, 2-((1H-tetrazol-5-yl)methylthio)-5-chloro-6-oxo-4-(trifluoromethyl)-1,6-dihydropyridine-3-carbonitrile] | 4
10 | N#Cc1c(-c2ccccn2)cc(=O)[nH]c1SCc1cccc(C(=O)O)c1 [Ex. 32, 3-(((3′-cyano-6′-oxo-1′,6′-dihydro-[2,4′-bipyridin]-2′-yl)thio)methyl)benzoic acid] | 170
11 | Cc1ccc(-c2cc(=O)[nH]c(SCc3cccc(C(=O)O)c3)c2C#N)cc1 [Ex. 29, 3-(((3-cyano-6-oxo-4-(p-tolyl)-1,6-dihydropyridin-2-yl)thio)methyl)benzoic acid] | 4
12 | N#Cc1c(-c2ccccc2)cc(=O)[nH]c1SCC(=O)O [Ex. 12, 2-((3-cyano-6-oxo-4-phenyl-1,6-dihydropyridin-2-yl)thio)acetic acid] | 7000
13 | N#Cc1c(-c2ccccc2)cc(=O)[nH]c1SCc1cncc(C(=O)O)c1 [Ex. 34, 5-(((3-cyano-6-oxo-4-phenyl-1,6-dihydropyridin-2-yl)thio)methyl)nicotinic acid] | 3
14 | N#Cc1c(SCc2nnn[nH]2)[nH]c(=O)c(F)c1C(F)(F)F [Ex. 48, 2-((1H-tetrazol-5-yl)methylthio)-5-fluoro-6-oxo-4-(trifluoromethyl)-1,6-dihydropyridine-3-carbonitrile] | 2
15 | N#Cc1c(SCC(=O)O)[nH]c(=O)c(C#N)c1C(F)(F)F [Ex. 39, 2-((3,5-dicyano-6-oxo-4-(trifluoromethyl)-1,6-dihydropyridin-2-yl)thio)acetic acid] | > 10000
16 | N#Cc1c(-c2ccsc2)cc(=O)[nH]c1SCc1cccc(-c2nnn[nH]2)c1 [Ex. 54, 2-(3-(1H-tetrazol-5-yl)benzylthio)-6-oxo-4-(thiophen-3-yl)-1,6-dihydropyridine-3-carbonitrile] | 9

Row | Compound | IC50 [nM]
17 | Cc1ccc(C(=O)O)cc1CSc1[nH]c(=O)cc(C(F)(F)F)c1C#N [Ex. 44, 3-((3-cyano-6-oxo-4-(trifluoromethyl)-1,6-dihydropyridin-2-ylthio)methyl)-4-methylbenzoic acid] | 510
18 | CC(C)c1cc(=O)[nH]c(SCC(=O)O)c1C#N [Ex. 13, 2-((3-cyano-4-isopropyl-6-oxo-1,6-dihydropyridin-2-yl)thio)acetic acid] | 2600
19 | N#Cc1c(C2CC2)cc(=O)[nH]c1SCC(=O)O [Ex. 14, 2-((3-cyano-4-cyclopropyl-6-oxo-1,6-dihydropyridin-2-yl)thio)acetic acid] | 7300
20 | COCc1cc(=O)[nH]c(SCC(=O)O)c1C#N [Ex. 11, 2-(3-cyano-4-(methoxymethyl)-6-oxo-1,6-dihydropyridin-2-ylthio)acetic acid] | 9000
21 | N#Cc1c(-c2cccnc2)cc(=O)[nH]c1SCc1cccc(C(=O)O)c1 [Ex. 37, 3-(((3′-cyano-6′-oxo-1′,6′-dihydro-[3,4′-bipyridin]-2′-yl)thio)methyl)benzoic acid] | 50
22 | N#Cc1c(-c2ccccc2)cc(=O)[nH]c1SCc1cccc(C(=O)O)c1 [Ex. 15, 3-(((3-cyano-6-oxo-4-phenyl-1,6-dihydropyridin-2-yl)thio)methyl)benzoic acid] | 56
23 | N#Cc1c(SCC(=O)O)[nH]c(=O)c(Cl)c1C(F)(F)F [Ex. 38, 2-(5-chloro-3-cyano-6-oxo-4-(trifluoromethyl)-1,6-dihydropyridin-2-ylthio)acetic acid] | 11
24 | N#Cc1c(Cc2ccccc2)cc(=O)[nH]c1SCc1nn[nH]n1 [Ex. 53, 2-(((2H-tetrazol-5-yl)methyl)thio)-4-benzyl-6-oxo-1,6-dihydropyridine-3-carbonitrile] | 2
25 | N#Cc1c(-c2ccccc2)cc(=O)[nH]c1SCc1cccc(C(=O)O)n1 [Ex. 33, 6-(((3-cyano-6-oxo-4-phenyl-1,6-dihydropyridin-2-yl)thio)methyl)picolinic acid] | 190
26 | Cc1cc(=O)[nH]c(SCC(=O)O)c1C#N [reference compound] | 2990
27 | N#Cc1c(C(F)(F)F)cc(=O)[nH]c1SCc1cc(F)cc(C(=O)O)c1 [Ex. 20, 3-(((3-cyano-6-oxo-4-(trifluoromethyl)-1,6-dihydropyridin-2-yl)thio)methyl)-5-fluorobenzoic acid] | 350
28 | Cc1c(C(F)(F)F)c(C#N)c(SCC(=O)O)[nH]c1=O [Ex. 5, 2-((3-cyano-5-methyl-6-oxo-4-(trifluoromethyl)-1,6-dihydropyridin-2-yl)thio)acetic acid] | 26
29 | N#Cc1c(C(F)(F)F)cc(=O)[nH]c1SCc1cccc(C(=O)O)c1F [Ex. 22, 3-(((3-cyano-6-oxo-4-(trifluoromethyl)-1,6-dihydropyridin-2-yl)thio)methyl)-2-fluorobenzoic acid] | 830
30 | N#Cc1c(SCc2cccc(C(=O)O)c2)[nH]c(=O)c(F)c1-c1ccccc1 [Ex. 30, 3-(((3-cyano-5-fluoro-6-oxo-4-phenyl-1,6-dihydropyridin-2-yl)thio)methyl)benzoic acid] | 70
31 | Cc1cccc(-c2cc(=O)[nH]c(SCc3cccc(C(=O)O)c3)c2C#N)c1 [Ex. 25, 3-(((3-cyano-6-oxo-4-(m-tolyl)-1,6-dihydropyridin-2-yl)thio)methyl)benzoic acid] | 6
32 | N#Cc1c(C(F)(F)F)cc(=O)[nH]c1SCc1cccc(C(=O)O)c1 [Ex. 8, 3-((3-cyano-6-oxo-4-(trifluoromethyl)-1,6-dihydropyridin-2-ylthio)methyl)benzoic acid] | 1610
